Assay [1] concerns ICAM-1 expression in human umbilical cord vascular endothelial cells. The assay is described as follows: Inhibitory activity of adhesion molecule expression (ICAM-1, cell-ELISA). Format: cell-based. As to conditions: TNFα 1 ng/ml, 37° C., 5 hours. The method, then:
(§1) Inhibitory activity of adhesion molecule expression
(§2) Test method: To human umbilical cord vascular endothelial cells (purchased from Kurabo), cultured on gelatin-coated plates, compounds at various concentrations (test compounds) were added, followed by incubation at 37° C. for 15 minutes. Human tumor necrosis factor (TNFα, purchased from Genzyme) was then added to a final concentration of 1 ng/ml, followed by incubation at 37° C. for 3 hours for ELAM-1 expression or for 5 hours for ICAM-1 expression. After the reaction, cells were fixed with glutaraldehyde; the amounts of ELAM-1 and ICAM-1 expressed were determined by cell-ELISA. Anti-ELAM-1 antibody BBA-2 and an anti-ICAM-1 antibody BBA-4 were used as the first antibodies for the defection of ELAM-1 and ICAM-1, respectively, and horse radish peroxidase-labeled rabbit anti-mouse IgG antibody was used as the second antibody to determine the amount of adhesion molecules expressed on cells observed. The compound concentration at which 50% expression was expressed as the 50% inhibitory concentration (IC50), with the amount of expression in the absence of compounds as 100 and the amount of expression in the absence of TNFα as 0.
A general note: An ELISA detects its analyte on a solid surface through an enzyme-linked reagent.

Assay [2] deals with ELAM-1 expression in human umbilical cord vascular endothelial cells. The assay can be described thus: Inhibitory activity of adhesion molecule expression (ELAM-1, cell-ELISA). The assay is classed as cell-based. As to conditions: TNFα 1 ng/ml, 37° C., 3 hours. The method, then:
as §1, §2

As to `CCCC=C1SC(=O)N(CCSc2cccc3nccn23)C1=O` [compound 5], the IC50 (commonly the point on the concentration scale where inhibition reaches its midpoint) in assay [1] was found to be 3.5 µM; in assay [2] it was 5.3 µM.

As to `CCCCCCCCCC=C1SC(=O)N(CCCCSc2cccc3nccn23)C1=O` [compound 6], the figures for the IC50 in assay [1] and in assay [2] were 6.3 µM and 7.3 µM, respectively.

For the compound `CCCC=C1SC(=O)N(CCCCc2cccc3nccn23)C1=O` [compound 7], the IC50 stood at 3.1 µM in assay [1] and 2.3 µM in assay [2].

Regarding `CCCC=C1SC(=O)N(CCCCOc2cccc3nccn23)C1=O` [compound 8], the concentration for half-maximal inhibition (IC50) in assay [1] stood at 4.4 µM; in assay [2], 3.8 µM.

With `CCCC=C1OC(=O)N(CCCCSc2cccc3nccn23)C1=O` [compound 9], the values for the IC50 in assay [1] and in assay [2] were 2.4 µM and 2.6 µM, respectively.

As for `CCC=C1SC(=O)N(CCCCSc2cccc3nccn23)C1=O` [compound 10], the IC50 turned out to be 2.4 µM in assay [1] and 2.3 µM in assay [2].

On to `CC=C1SC(=O)N(CCCCSc2cccc3nccn23)C1=O` [compound 11], for which the results for the IC50 in assay [1] and in assay [2] were 2.9 µM and 1.9 µM, respectively.

In the case of `CCCC=C1SC(=O)N(CCCc2cccc3nccn23)C1=O` [compound 12], the IC50 came to 4.9 µM in assay [1] and 4.4 µM in assay [2].

With `CCCC=C1SC(=O)N(CSc2cccc3nccn23)C1=O` [compound 13], the IC50 was determined as 6.3 µM in assay [1] and 5.1 µM in assay [2].

With `CCCC=C1SC(=O)N(CCc2cccc3nccn23)C1=O` [compound 14], the half-inhibitory concentration (IC50) was 6.1 µM in assay [1] and 5.1 µM in assay [2].

As to `CCCC=C1SC(=O)N(Cc2cccc3nccn23)C1=O` [compound 15], the IC50 was 7 µM in assay [1] and 6.2 µM in assay [2].

For `O=C1SC(=CCCc2ccccc2)C(=O)N1CCCCSc1cccc2nccn12` [compound 19], the results for the 50% inhibitory concentration (IC50) in assay [1] and in assay [2] were 3.9 µM and 3 µM, respectively.

For `O=C1SC(=CCCCc2ccccc2)C(=O)N1CCCCSc1cccc2nccn12` [compound 21], the results for the IC50 in assay [1] and in assay [2] were 4 µM and 3.3 µM, respectively.

Turning to `CCCC=C1SC(=O)N(CCCCSc2cccc3nc(C)cn23)C1=O` [compound 23], the figures for the IC50 in assay [1] and in assay [2] were 7 µM and 3.6 µM, respectively.

For `CCCC=C1SC(=O)N(CCCCSc2nccc3nccn23)C1=O` [compound 25], the IC50 was 8 µM in assay [1] and 4 µM in assay [2].

Turning to `CCCC=C1SC(=O)N(CCCCOc2cccn3cc(-c4ccccc4)nc23)C1=O` [compound 26], the IC50 in assay [1] is 3.7 µM; in assay [2] it was 4.1 µM.

For the compound `CCCC=C1SC(=O)N(CCCCOc2cccn3cc(C(=O)OCC)nc23)C1=O` [compound 27], the concentration for half-maximal inhibition (IC50) in assay [1] came out at 6.5 µM; in assay [2], 5 µM.

For the compound `O=C1OC(=CCCc2ccccc2)C(=O)N1CCCCOc1cccn2ccnc12` [compound 32], the IC50 in assay [1] turned out to be 5.7 µM; in assay [2], 3.2 µM.

For the compound `O=C1OC(=CCCc2ccccc2)C(=O)N1CCCCSc1cccc2nccn12` [compound 33], the IC50 in assay [1] amounted to 6.3 µM; in assay [2], 2.8 µM.

As for `CCCC=C1SC(=O)N(CCCCOc2cccn3c(C(=O)C(F)(F)F)cnc23)C1=O` [compound 34], the IC50 was found to be 6.1 µM in assay [1] and 5.2 µM in assay [2].

On to `CCCC=C1SC(=O)N(CCCCSc2cccc3ncc(C(=O)C(F)(F)F)n23)C1=O` [compound 35], for which the IC50 in assay [1] came to 4.6 µM; in assay [2], 3.4 µM.

Turning to `O=c1c(-c2ccccc2)c2n(c(=O)n1CCCCSc1cccc3nccn13)CCS2(=O)=O` [compound 36], the IC50 in assay [1] came out at 3.7 µM; in assay [2], 2.1 µM.

For the compound `O=C1SC(=CCCc2cccnc2)C(=O)N1CCCCSc1cccc2nccn12` [compound 38], the 50% inhibitory concentration (IC50) in assay [1] came out at 3.7 µM; in assay [2] it was 3.4 µM.

For `O=C1SC(=CCCc2cccnc2)C(=O)N1CCCCOc1cccn2ccnc12` [compound 39], the values for the IC50 in assay [1] and in assay [2] were 2.4 µM and 3.3 µM, respectively.

On to `Cc1c2n(c(=O)n(CCCCSc3cccc4nccn34)c1=O)CCCS2(=O)=O` [compound 40], for which the figures for the IC50 in assay [1] and in assay [2] were 1.8 µM and 1.1 µM, respectively.

Regarding `O=c1c(Cc2ccccc2)c2n(c(=O)n1CCCCSc1cccc3nccn13)CCCS2(=O)=O` [compound 41], the IC50 worked out at 0.9 µM in assay [1] and 0.5 µM in assay [2].

For `CC(C)c1c2n(c(=O)n(CCCCSc3cccc4nccn34)c1=O)CCCS2(=O)=O` [compound 42], the results for the IC50 in assay [1] and in assay [2] were 1.5 µM and 1 µM, respectively.

As to `O=c1cc2n(c(=O)n1CCCCSc1cccc3nccn13)CCCS2(=O)=O` [compound 43], the IC50 in assay [1] turned out to be 3.5 µM; in assay [2] it was 2.2 µM.

Turning to `CCCC=C1SC(=O)N(CCCOc2cccn3ccnc23)C1=O` [compound 47], the IC50 amounted to 4.2 µM in assay [1] and 3 µM in assay [2].

On to `CCCC=C1SC(=O)N(CCCCOc2cccn3cc(C)nc23)C1=O` [compound 48], for which the IC50 amounted to 6.4 µM in assay [1] and 4.6 µM in assay [2].

Turning to `CCCC=C1SC(=O)N(CCCCSc2cccc3ncc(Br)n23)C1=O` [compound 50], the IC50 is 6.9 µM in assay [1] and 4.7 µM in assay [2].

As for `O=c1c(-c2ccccc2)c2n(c(=O)n1CCCCSc1cccc3nccn13)CCC[S+]2[O-]` (centres unmarked) [compound 51], the half-maximal inhibitory concentration (IC50) amounted to 6.8 µM in assay [1] and 2.8 µM in assay [2].

Turning to `O=C(NCCCn1c(=O)c(-c2ccccc2)c2n(c1=O)CCCS2(=O)=O)OCCc1cccc2nccn12` [compound 53], the values for the IC50 in assay [1] and in assay [2] were 6.3 µM and 6.2 µM, respectively.

In the case of `CCCC=C1SC(=O)N(CCC(C)(C)CCSc2cccc3nccn23)C1=O` [compound 54], the IC50 worked out at 5 µM in assay [1] and 6.1 µM in assay [2].

Turning to `CCCC=C1SC(=O)N(CCC2(CCSc3cccc4nccn34)CCCC2)C1=O` [compound 55], the IC50 in assay [1] is 5.5 µM; in assay [2] it was 7.3 µM.

Consider `CN(C)Cc1cnc2cccc(SCCCCn3c(=O)c(-c4ccccc4)c4n(c3=O)CCCS4(=O)=O)n12` [compound 56], for which the IC50 in assay [1] stood at 5.7 µM; in assay [2] it was 3.9 µM.

As for `CCCCCCC=C1SC(=O)N(CCCCSc2cccc3nccn23)C1=O` [compound 57], the IC50 stood at 7.1 µM in assay [1] and 7.9 µM in assay [2].

`CCCCCCCC=C1SC(=O)N(CCCCSc2cccc3nccn23)C1=O` [compound 60]: the IC50 stood at 9 µM in assay [1] and 9.2 µM in assay [2].

Take `O=C1SC(=CCCCCc2ccccc2)C(=O)N1CCCCSc1cccc2nccn12` [compound 65]: the IC50 was 5.3 µM in assay [1] and 5 µM in assay [2].

In the case of `O=C1SC(=CCCc2ccccc2)C(=O)N1CCCCOc1cccn2ccnc12` [compound 67], the half-inhibitory concentration (IC50) stood at 3.9 µM in assay [1] and 3.4 µM in assay [2].

For the compound `CCC=C1SC(=O)N(CCCCOc2cccn3ccnc23)C1=O` [compound 68], the IC50 in assay [1] is 5 µM; in assay [2] it was 3.2 µM.

In the case of `CCCCC=C1SC(=O)N(CCCCOc2cccn3ccnc23)C1=O` [compound 69], the 50% inhibitory concentration (IC50) was 6.1 µM in assay [1] and 4 µM in assay [2].

`CCCCCC=C1SC(=O)N(CCCCOc2cccn3ccnc23)C1=O` [compound 70]: the IC50 was 6.9 µM in assay [1] and 5.3 µM in assay [2].

Consider `CCCCCCCC=C1SC(=O)N(CCCCOc2cccn3ccnc23)C1=O` [compound 71], for which the IC50 in assay [1] worked out at 5.2 µM; in assay [2], 4.6 µM.

With `CCCCCCCCCC=C1SC(=O)N(CCCCOc2cccn3ccnc23)C1=O` [compound 72], the IC50 in assay [1] came out at 5.6 µM; in assay [2], 6.4 µM.

For the compound `CCCCCC=C1OC(=O)N(CCCCOc2cccn3ccnc23)C1=O` [compound 75], the results for the IC50 in assay [1] and in assay [2] were 6.1 µM and 3.5 µM, respectively.

For `CCC/C=C1\OC(=O)N(CCCCOc2cccn3c(C(=O)C(F)(F)F)cnc23)C1=O` [compound 76], the values for the IC50 in assay [1] and in assay [2] were 7.1 µM and 6.7 µM, respectively.

Take `CCC/C=C1/OC(=O)N(CCCCOc2cccn3c(C(=O)C(F)(F)F)cnc23)C1=O` [compound 77]: the IC50 in assay [1] stood at 6 µM; in assay [2] it was 6.3 µM.

As for `O=C(CCCSc1cccc2nccn12)NCCCn1c(=O)c(-c2ccccc2)c2n(c1=O)CCCS2(=O)=O` [compound 79], the IC50 in assay [1] was found to be 5.9 µM; in assay [2], 6.1 µM.

Consider `COc1ccc(CCC=C2SC(=O)N(CCCCSc3cccc4nccn34)C2=O)cc1` [compound 80], for which the IC50 in assay [1] was found to be 4.1 µM; in assay [2], 4.6 µM.

Take `COc1ccccc1CCC=C1SC(=O)N(CCCCSc2cccc3nccn23)C1=O` [compound 81]: the concentration for half-maximal inhibition (IC50) in assay [1] turned out to be 4.3 µM; in assay [2], 6.1 µM.

Turning to `O=C1SC(=CCCc2ccc(F)cc2)C(=O)N1CCCCSc1cccc2nccn12` [compound 82], the IC50 turned out to be 3.6 µM in assay [1] and 4.3 µM in assay [2].

In the case of `O=C1SC(=CCCc2ccccc2F)C(=O)N1CCCCSc1cccc2nccn12` [compound 83], the values for the 50% inhibitory concentration (IC50) in assay [1] and in assay [2] were 3.8 µM and 3.7 µM, respectively.

For the compound `O=C1SC(=CCCc2ccccc2Cl)C(=O)N1CCCCSc1cccc2nccn12` [compound 84], the IC50 in assay [1] was found to be 3.6 µM; in assay [2], 4.1 µM.

Consider `O=C1SC(=CCCc2ccc(Cl)cc2)C(=O)N1CCCCSc1cccc2nccn12` [compound 85], for which the IC50 in assay [1] is 3.9 µM; in assay [2], 4.3 µM.

Values taken from US5840732A, “Imidazopyridine or imidazopyrimidine compounds, their production and use” (Takeda Chemical Industries Ltd., priority 1994, dated 1998).
